This note sets out measurements from ChEMBL document CHEMBL3045432, “Synthesis and Fungicidal Activity of -Cyanoacetamide Derivatives: Discovery of a New Rice Blast Fungicide, Diclocymet (S-2900)” (2002).

Holding throughout (assay type): functional
In experiment [1] the test system is Pyricularia grisea. Put plainly: Fungicidal activity against Magnaporthe grisea in rice plant assessed as prevention from rice blast disease measured as lesions under greenhouse at 3.1 ppm for 8 days by foliar spray compound treated before inoculation.
In experiment [2] the test system is Pyricularia grisea. Briefly: Fungicidal activity against Magnaporthe grisea in rice plant assessed as prevention from rice blast disease measured as lesions under greenhouse at 12.5 ppm for 8 days by soil drench compound treated before inoculation.
Experiment [3] has as its system Pyricularia grisea. Briefly: Fungicidal activity against Magnaporthe grisea in rice plant assessed as rice blast disease measured as damage under greenhouse at 0.4 ppm for 8 days by foliar spray compound treated before inoculation.
Experiment [4] concerns Pyricularia grisea. Put plainly: Fungicidal activity against Magnaporthe grisea in rice plant assessed as rice blast disease measured as damage under greenhouse at 1.6 ppm for 8 days by foliar spray compound treated before inoculation.
Experiment [5] deals with Pyricularia grisea. Briefly: Fungicidal activity against Magnaporthe grisea in rice plant assessed as rice blast disease measured as damage under greenhouse at 6.3 ppm for 8 days by foliar spray compound treated before inoculation.
Experiment [6] deals with Pyricularia grisea. Put plainly: Fungicidal activity against Magnaporthe grisea in rice plant assessed as rice blast disease measured as damage under greenhouse at 25 ppm for 8 days by foliar spray compound treated before inoculation.
The test system of experiment [7] is Pyricularia grisea. Briefly: Fungicidal activity against Magnaporthe grisea in rice plant assessed as rice blast disease measured as damage under greenhouse by foliar spray for 8 days compound treated before inoculation. Conditions: 192 h.
The subject of experiment [8] is Pyricularia grisea. Briefly: Fungicidal activity against Magnaporthe grisea in rice plant assessed as prevention from rice blast disease measured as lesions under greenhouse at 200 ppm for 8 days by soil drench compound treated before inoculation.
Experiment [9] deals with Pyricularia grisea. Put plainly: Fungicidal activity against Magnaporthe grisea in rice plant assessed as prevention from rice blast disease measured as lesions under greenhouse at 50 ppm for 8 days by foliar spray compound treated before inoculation.
The subject of experiment [10] is Pyricularia grisea. Put plainly: Fungicidal activity against Magnaporthe grisea in rice plant assessed as prevention from rice blast disease measured as lesions under greenhouse at 50 ppm for 8 days by soil drench compound treated before inoculation.
Experiment [11] has as its system Pyricularia grisea. Briefly: Fungicidal activity against Magnaporthe grisea in rice plant assessed as prevention from rice blast disease measured as lesions under greenhouse at 12.5 ppm for 8 days by foliar spray compound treated before inoculation.

Converted amounts (≈) assume the structure as drawn.

Consider `CC(NC(=O)C(C#N)C(C)(C)C)c1ccc(Br)cc1` (configuration not stated), for which the Activity entry in the experiment with Pyricularia grisea [1] and in the experiment with Pyricularia grisea [2] was “<=10%” throughout.

`C#CC(C)(C)C(C#N)C(=O)NC(C)c1ccc(Cl)cc1` (configuration not stated): the Activity entry in the experiment on Pyricularia grisea [1] and in the experiment with Pyricularia grisea [2] was “<=10%” throughout.

With `C=CC(C)(C)C(C#N)C(=O)NC(C)c1ccc(Cl)cc1` (configuration not stated), the Activity result with Pyricularia grisea [1] and in the experiment on Pyricularia grisea [2] was “<=10%” in each case.

Regarding `C=CC(C)(C)C(C#N)C(=O)NC(C)c1ccc(Cl)cc1F` (configuration not stated), the Activity entry in the experiment on Pyricularia grisea [1] and in the experiment on Pyricularia grisea [2] was “<=10%” each time.

Broadly, the MIC is the lowest concentration that inhibits growth of the organism. As to `C[C@@H](NC(=O)[C@@H](C#N)C(C)(C)C)c1ccc(Cl)cc1Cl`, the Activity in the experiment with Pyricularia grisea [3] turned out to be 0%; in the experiment on Pyricularia grisea [4] it was 2%; in the experiment on Pyricularia grisea [5] it was 3%; in the experiment on Pyricularia grisea [6] it was 4%. Moreover, the MIC with Pyricularia grisea [7] came to 0.16 µg/mL (≈ 0.511 µM).

With `C[C@@H](NC(=O)C(C#N)C(C)(C)C)c1ccc(Cl)cc1Cl` (mixture of isomers) [DICLOCYMET], the Activity was 2% with Pyricularia grisea [3], 3% with Pyricularia grisea [4], 4% with Pyricularia grisea [5] and 4% in the experiment with Pyricularia grisea [6]. Also, the MIC in the experiment on Pyricularia grisea [7] amounted to 0.08 µg/mL.

Turning to `C[C@H](NC(=O)[C@@H](C#N)C(C)(C)C)c1ccc(Cl)cc1Cl`, the Activity in the experiment with Pyricularia grisea [3], with Pyricularia grisea [4], with Pyricularia grisea [5] and in the experiment on Pyricularia grisea [6] was 0% each time. The MIC in the experiment with Pyricularia grisea [7] is over 20 µg/mL.

As to `CCCCC(C#N)C(=O)NC(C)c1ccc(Cl)cc1` (configuration not stated), the Activity result in the experiment with Pyricularia grisea [8] and in the experiment on Pyricularia grisea [9] was “<=10%” each time.

For `C[C@H](NC(=O)[C@H](C#N)C(C)(C)C)c1ccc(Cl)cc1Cl`, the Activity in the experiment with Pyricularia grisea [3], in the experiment on Pyricularia grisea [4], in the experiment on Pyricularia grisea [5] and with Pyricularia grisea [6] was 0% in each case. The MIC in the experiment with Pyricularia grisea [7] was over 20 µg/mL.

Take `CCC(CC)=C(C#N)C(=O)NC(C)c1ccc(Cl)cc1` (configuration not stated): the Activity result with Pyricularia grisea [8] and in the experiment on Pyricularia grisea [9] was “<=10%” each time.

As to `C[C@@H](NC(=O)[C@H](C#N)C(C)(C)C)c1ccc(Cl)cc1Cl`, the Activity in the experiment with Pyricularia grisea [3] is given as 3%; in the experiment on Pyricularia grisea [4] it was 4%; in the experiment on Pyricularia grisea [5] it was 4%; with Pyricularia grisea [6] it was 5%. Also, the MIC with Pyricularia grisea [7] came to 0.04 µg/mL (≈ 0.128 µM).

Consider `O=C1OCc2c(Cl)c(Cl)c(Cl)c(Cl)c21` [4,5,6,7-TETRACHLOROPHTHALIDE], for which the Activity in the experiment with Pyricularia grisea [3] is given as 0%; in the experiment on Pyricularia grisea [4], 0%; in the experiment on Pyricularia grisea [5], 1%; with Pyricularia grisea [6], 4%.

Consider `CC(NC(=O)C(C#N)C1CCCC1)c1ccc(Cl)cc1` (configuration not stated), for which the Activity entry in the experiment on Pyricularia grisea [8] and in the experiment with Pyricularia grisea [9] was “<=10%” each time.

Take `CC(NC(=O)C(C#N)C(C)(C)C)c1ccc(Cl)cc1` (configuration not stated): the Activity result in the experiment on Pyricularia grisea [1] and with Pyricularia grisea [2] was “<=10%” in each case.

For `C=CC(C)(C)C(C#N)C(=O)NC(C)c1ccc(Cl)cc1Cl` (configuration not stated), the Activity result in the experiment with Pyricularia grisea [10] and in the experiment with Pyricularia grisea [11] was “<=10%” in each case.
